What all share (assay type): cell-based, Staphylococcus aureus
Assay [1] has as its system MW2 ex Δpbp4. Put plainly: MIC by microdilution (CLSI). An excerpt: (§1) The present invention was described based on a series of experiments examining the biological basis for CA-MRSA strains versus HA-MRSA strains, focusing on the role of PBPs in CA-MRSA and generally in β-lactam resistance. Experiments were first performed using mutants of various PBPs. In-frame deletion mutants of the genes encoding PBP3 (MW1504) and PBP4 (MW0604), pbp3 and pbp4 respectively, were generated in the CA-MRSA strain MW2 and in HA-MRSA strain COL using the temperature-sensitive allelic replacement vector pMAD (Arnaud, M. et al. 2004. Appl. Environ. Microbiol. 70:6887-6891). PBP4 was also deleted in the HA-MRSA strains Mu50 and N315 and in the CA-MRSA strain USA300. […] Minimum inhibitory concentrations (MICs) were determined according to the Clinical and Laboratory Standards Institute and are a standard method for defining antibiotic efficacy against different organisms. Bacteria, grown to an OD650=1, were added to cation-supplemented Mueller Hinton broth (CSMHB) to achieve a final concentration of 5×10^5 CFU/ml.
(§2) Minimum inhibitory concentrations and minimum bactericidal concentrations (MIC and MBC, respectively) were determined for each isolate in triplicate by microdilution techniques with an inoculum of 5×10^5 CFU/ml according to the Clinical and Laboratory Standards Institute guidelines. Aliquots (5 μl) from clear wells were plated onto TSA drug-free plates for the determination of MBCs, followed by incubation at 37° C. for 24 and 48 hours. For the mutant strains, each one of the three clones was tested. MIC data were reported as median values from at least three independent experiments for each antibiotic. Also, strains containing pEPSA5-based plasmids were tested with and without xylose induction, but chloramphenicol was not added to avoid interference with beta-lactam resistance evaluation. […] The correct inocula were confirmed by plating serial dilutions on agar.
(Dilution methods test growth across graded concentrations, often in twofold steps.)

For assay [2], the system named is N315 wild-type. Kind of assay: MIC by microdilution (CLSI).
Source text: as §1, §2

For assay [3], the system named is HA-MRSA Strains (30 clinical isolates). Put plainly: MIC and synergy assay, clinical isolates.
Source text: (§3) Analysis of the Type IV SCCmec element, virtually identical between MW2 and USA300, allowed for identification of four genes conserved in the CA-MRSA background, but not in other known MRSA genomes. These four genes therefore served as biomarkers that could be used to distinguish CA-MRSA strains from HA-MRSA strains. PCR of chromosomal DNAs with oligonucleotides specific for mecA, pvl (Lina, G. et al. 1999. Clin. Infect. Dis. 29:1128-1132) and the four specific genes for CA-MRSAs (MW0042/USA300_0041; MW0043/USA300_0042; MW0046/USA300_0045; and MW0047/USA300_0046) identified 30 isolates positive for these genes. […] The code was subsequently broken, confirming that all 30 isolates, designated as CA-MRSA, were from patients with primary skin infections and annotated by the donating hospital as CA-MRSA while the other were blood isolates designated as HA-MRSA. […] The synergistic inhibitory activity of the combined treatment also was further tested on 30 MRSA isolates from complicated skin and soft tissue infections, with CA-MRSA being the most common etiologic agent.
(§4) Two independent batches of clinical isolates were obtained from the Dartmouth Hitchcock Medical Center, Lebanon, N.H. The first group included 200 blood MRSA isolates sub-cultured on 5% Columbia sheep blood agar (Remel). The second group involved 30 MRSA isolates from complicated skin and soft tissue infections (CSSTI) similarly sub-cultured. All strains were grown overnight in CSMHB broth and streaked on selective mannitol salt agar plates for confirmation. DNA extraction was performed on 500 μl of cultures. PCR was performed on all DNAs with oligonucleotides specific for mecA, pvl and the four genes found to be specific for the SCCmec type IV in CA-MRSA: MW0042, MW0043, MW0046, and MW0047. DNA amplification of mecA was used as a control to confirm that all strains were MRSA. DNAs from S. epidermidis, E. coli and S. pneumoniae were used as negative controls to confirm the specificity of the oligonucleotides. After amplification for 30 cycles (5 min of denaturation at 95° C., 30 s of annealing at 54° C. and 1 min extension at 72° C.), PCR products were resolved by electrophoresis through 1.5% agarose gels stained with ethidium bromide. Given the number of clinical isolates tested, only a small random group of PCR products were subjected to DNA sequencing to confirm specificity. S. aureus strain COL, Mu50, N315 and MRSA252 all tested negative for all MW0042, MW0043 and MW0047 and pvl while USA300 and MW2 were positive controls for this PCR reaction. The primer sequences for mecA, MW0042, MW0043 and MW0047 were as follows: mecA-UP 5′-GGTACTGCTATCCACCCTCAAA-3′ (SEQ ID NO:19), mecA-LOW 5′-TTACGACTTGTTGCATACCATCA-3′ (SEQ ID NO:20), MW0042-UP 5′-ATTGGCAGAAATAAACAAAACG-3′ (SEQ ID NO:21), MW0042-LOW 5′-TCGTTTAATTTTTTCCCAAACTC-3′ (SEQ ID NO:22), MW0043-UP 5′-GTTTCAGTTGGTGTTGAAGATCC-3′ (SEQ ID NO:23), MW0043-LOW 5′-CCTATAATTTTCGATAGATTCGTG-3′ (SEQ ID NO:24), MW0047-UP 5′-AGGCATATAAAGAAGCAGGAAAG-3′ (SEQ ID NO:25), MW0047-LOW 5′-CACACTGTTTTCCTACGATATTTG-3′ (SEQ ID NO:26).
as §2, with “agar. […]” for “agar.”

In assay [4] the test system is CA-MRSA Strains (30 clinical isolates). Kind of assay: MIC and synergy assay, clinical isolates.
Source text: as §3, §4
as §2, with “agar. […]” for “agar.”

In assay [5] the test system is CA-MRSA from CSSTI (30 isolates). Kind of assay: MIC and synergy assay, clinical isolates.
Source text: as §3, §4
as §2, with “agar. […]” for “agar.”

[6] abbreviates: Staphylococcus aureus, read-out: MICs.
[7] abbreviates: Staphylococcus aureus, MRSA, 48 h, read-out: MICs 48 hr.

Values after ≈ are worked out from the molar mass of the structure shown. Marks after values point to notes of the source that are not given here.

In the case of `CO[C@@]1(NC(=O)Cc2cccs2)C(=O)N2C(C(=O)O)=C(COC(N)=O)CS[C@@H]21` [CX, cefoxitin], the MIC in assay [1] (setting [6]) worked out at 16 µg/mL (≈ 37.4 µM); in assay [2] (setting [6]), 64 µg/mL (≈ 150 µM); in assay [3] (setting [7]), 128 µg/mL; in assay [4] (setting [7]) it was 64 µg/mL; in assay [5] (setting [7]) it was 64 µg/mL.
With `Cc1onc(-c2ccccc2)c1C(=O)N[C@@H]1C(=O)N2[C@@H]1SC(C)(C)[C@@H]2C(=O)O` [OX, oxacillin], the “reduction in oxacillin MIC for the pbp4 mutant” value in assay [1] (MW2 ex Δpbp4 versus MW2 ex) stood at 64 fold. In addition, the MICs in assay [1] (Table 1, MW2 ex Δpbp4) came out at 2 µg/mL; in assay [2] (Table 1, N315 wild-type), 256 µg/mL. Further, the “MICs 48 hr” value in assay [3] (30 HA-MRSA clinical isolates, median values, 48 hr) was 256^b μg/ml; in assay [4] (30 CA-MRSA clinical isolates, median values, 48 hr), 64^b μg/ml; in assay [5] (30 CSSTI isolates, median values, 48 hr) it was 64^b μg/ml.

Source of the values: patent US9427468B2, “Compositions and methods for diagnosing and treating community-acquired methicillin-resistant Staphylococcus aureus” (priority 2007, dated 2016).
